The values that follow come from paper PMC11087051, “Large-scale deorphanization of Nematostella vectensis neuropeptide G protein-coupled receptors supports the independent expansion of bilaterian and cnidarian peptidergic systems” (eLife, 2024).

Residues, ends and D or L forms follow the SMILES beside them. No end group written: not given here.

The data set is described as follows: Maximal solubility of the synthetic peptides in water and in DMSO (sheet Peptide_mixes). In kind it is physicochemical. The note with it: for max solve (DMSO): in DMSO, number in brackets in the cell; for max solve water: in water, number before the bracket in the cell. An excerpt: Supplement elife-90674-supp3.xlsx, sheet "Peptide_mixes"

As for GPPPIYLPVRP-NH2 [RHa3], the “max solve (DMSO)” value was 10 (10) mg/ml and the max solve water is given as 10 (10) mg/ml.
Turning to `CC[C@H](C)[C@H](NC(=O)[C@H](Cc1c[nH]cn1)NC(=O)[C@H](Cc1ccccc1)NC(=O)[C@H](Cc1ccc(O)cc1)NC(=O)[C@H](C)NC(=O)[C@@H]1CCCN1C(=O)[C@@H](NC(=O)[C@H](CC(C)C)NC(=O)[C@H](CC(=O)O)NC(=O)[C@H](CC(C)C)NC(=O)[C@H](Cc1ccc(O)cc1)NC(=O)[C@@H]1CCCN1C(=O)[C@@H]1CCCN1C(=O)[C@@H]1CCC(=O)N1)[C@@H](C)O)C(=O)N[C@@H](CCCNC(=N)N)C(N)=O` [HIRa3] (HELM PEPTIDE1{[Glp].P.P.Y.L.D.L.T.P.A.Y.F.H.I.R.[am]}$$$$V2.0), the “max solve (DMSO)” value turned out to be 10 mg/mL and the max solve water came out at 5 mg/mL.
In the same order, the values of FPPGFHRP-NH2 [HRPa] are 10 mg/mL and 5 mg/mL.
In the same order, the values of `CC[C@H](C)[C@H](NC(=O)[C@@H]1CCCN1C(=O)[C@@H](NC(=O)[C@H](CCCNC(=N)N)NC(=O)[C@H](Cc1ccccc1)NC(=O)[C@@H]1CCCN1C(=O)[C@@H]1CCCN1C(=O)[C@@H]1CCC(=O)N1)[C@@H](C)CC)C(N)=O` [pIPIa] (HELM PEPTIDE1{[Glp].P.P.F.R.I.P.I.[am]}$$$$V2.0) are 10 mg/mL and 0 mg/mL.
The corresponding values for GPRGGREVNLEGPRG-NH2 [PRGa2] are 5 (5) mg/ml and 5 (5) mg/ml.
Turning to GPRGGRATEFGPRG-NH2 [PRGa3], the “max solve (DMSO)” value was 10 (10) mg/ml and the max solve water is 10 (10) mg/ml.
Consider `CC(C)C[C@H](NC(=O)[C@H](Cc1ccc(O)cc1)NC(=O)[C@@H]1CCC(=O)N1)C(=O)N[C@@H](CC(=O)O)C(=O)N1CCC[C@H]1C(=O)N[C@@H](CCCNC(=N)N)C(=O)N1CCC[C@H]1C(N)=O` [RHa5] (HELM PEPTIDE1{[Glp].Y.L.D.P.R.P.[am]}$$$$V2.0), for which the “max solve (DMSO)” value stood at 15 mg/mL and the max solve water was 10 mg/mL.
Turning to `CC[C@H](C)[C@H](NC(=O)[C@@H]1CCC(=O)N1)C(=O)N[C@H](C(=O)N[C@@H](CCCNC(=N)N)C(=O)N[C@@H](Cc1ccccc1)C(N)=O)[C@@H](C)O` [RFa0] (HELM PEPTIDE1{[Glp].I.T.R.F.[am]}$$$$V2.0), the “max solve (DMSO)” value is 5 (5) mg/ml and the max solve water was 5 (5) mg/ml.
Consider `CC[C@H](C)[C@H](NC(=O)[C@H](Cc1c[nH]cn1)NC(=O)[C@H](Cc1ccccc1)NC(=O)[C@H](Cc1ccc(O)cc1)NC(=O)[C@H](C)NC(=O)[C@@H]1CCCN1C(=O)CNC(=O)[C@H](CC(C)C)NC(=O)[C@H](CC(=O)O)NC(=O)[C@H](CC(C)C)NC(=O)[C@@H]1CCCN1C(=O)[C@@H]1CCCN1C(=O)[C@@H]1CCC(=O)N1)C(=O)N[C@@H](CCCNC(=N)N)C(N)=O` [HIRa4] (HELM PEPTIDE1{[Glp].P.P.L.D.L.G.P.A.Y.F.H.I.R.[am]}$$$$V2.0), for which the “max solve (DMSO)” value was 10 mg/mL and the max solve water stood at 5 mg/mL.
The corresponding values for APPGNGEGEAGFIPWFS-NH2 [WFSa] are 2 mg/mL and 0 mg/mL.
In the same order, the values of `CC(C)C[C@H](NC(=O)CNC(=O)[C@@H]1CCCN1C(=O)[C@@H]1CCCN1C(=O)[C@H](CS)NC(=O)[C@@H]1CCC(=O)N1)C(=O)N[C@@H](Cc1c[nH]c2ccccc12)C(=O)NCC(=O)N[C@@H](CS)C(=O)O` [GLWG] (HELM PEPTIDE1{[Glp].C.P.P.G.L.W.G.C}$$$$V2.0) are 10 (10) mg/ml and 10 (10) mg/ml.
`CC(C)C[C@@H]1NC(=O)CNC(=O)[C@@H]2CCCN2C(=O)[C@@H]2CCCN2C(=O)[C@@H](NC(=O)[C@@H]2CCC(=O)N2)CSSC[C@@H](C(=O)O)NC(=O)CNC(=O)[C@H](Cc2c[nH]c3ccccc23)NC1=O` [GLWGcc] (HELM PEPTIDE1{[Glp].C.P.P.G.L.W.G.C}$PEPTIDE1,PEPTIDE1,2:R3-9:R3$$$V2.0): the “max solve (DMSO)” value was found to be 10 mg/mL and the max solve water was 2 mg/mL.
In the same order, the values of KGIKQEEIQPGNMKVWSDPF [PNX20] are 10 mg/mL and 5 mg/mL.
In the same order, the values of `CC(C)C[C@H](NC(=O)[C@H](CO)NC(=O)[C@H](C)NC(=O)[C@@H](NC(=O)[C@H](CC(=O)O)NC(=O)[C@H](CC(N)=O)NC(=O)[C@H](CCC(=O)O)NC(=O)[C@H](CO)NC(=O)[C@@H](NC(=O)[C@H](CCC(=O)O)NC(=O)[C@H](CO)NC(=O)[C@@H](NC(=O)[C@H](CO)NC(=O)[C@@H]1CCCN1C(=O)[C@H](CC(C)C)NC(=O)[C@@H]1CCC(=O)N1)C(C)C)C(C)C)C(C)C)C(=O)N[C@@H](CC(C)C)C(=O)N[C@@H](CCCNC(=N)N)C(=O)N[C@@H](CCC(=O)O)C(=O)O` [LRE] (HELM PEPTIDE1{[Glp].L.P.S.V.S.E.V.S.E.N.D.V.A.S.L.L.R.E}$$$$V2.0) are 5 mg/mL and 0 mg/mL.
The corresponding values for GPRGGRSYDGPRG-NH2 [PRGa4] are 10 mg/mL and 5 mg/mL.
Consider `C[C@@H](O)[C@H](NC(=O)[C@H](Cc1c[nH]cn1)NC(=O)[C@H](Cc1ccccc1)NC(=O)[C@H](Cc1ccc(O)cc1)NC(=O)[C@@H]1CCCN1C(=O)[C@@H]1CCC(=O)N1)C(=O)N[C@@H](CC(=O)O)C(=O)N[C@@H](CC(N)=O)C(=O)N[C@@H](CO)C(=O)N1CCC[C@H]1C(=O)N[C@@H](CC(N)=O)C(=O)N[C@@H](CCCNC(=N)N)C(=O)N[C@@H](Cc1ccccc1)C(N)=O` [NRFa] (HELM PEPTIDE1{[Glp].P.Y.F.H.T.D.N.S.P.N.R.F.[am]}$$$$V2.0), for which the “max solve (DMSO)” value was 5 (5) mg/ml and the max solve water was 5 (5) mg/ml.
On to YPPLNTV-NH2 [NTVa], for which the “max solve (DMSO)” value is 10 mg/mL and the max solve water amounted to 5 mg/mL.
For `N=C(N)NCCC[C@H](NC(=O)CNC(=O)[C@@H]1CCC(=O)N1)C(=O)N[C@@H](Cc1ccccc1)C(N)=O` [QGRFa] (HELM PEPTIDE1{[Glp].G.R.F.[am]}$$$$V2.0), the “max solve (DMSO)” value is 10 mg/mL and the max solve water turned out to be 5 mg/mL.
In the case of GYYRDNIQETRQYLDPRP-NH2 [RHa4], the “max solve (DMSO)” value amounted to 10 mg/mL and the max solve water was found to be 5 mg/mL.
In the same order, the values of `CC(C)C[C@H](NC(=O)[C@H](CO)NC(=O)[C@H](CCC(=O)O)NC(=O)CNC(=O)[C@H](CC(=O)O)NC(=O)[C@@H](NC(=O)[C@H](CCC(=O)O)NC(=O)[C@@H]1CCC(=O)N1)[C@@H](C)O)C(=O)N[C@@H](CCCCN)C(=O)N[C@@H](CCCCN)C(=O)N[C@@H](C)C(=O)N[C@@H](CCC(=O)O)C(=O)N[C@@H](CCC(=O)O)C(=O)N[C@@H](CCC(=O)O)C(=O)N[C@@H](Cc1ccccc1)C(=O)N[C@H](C(=O)O)C(C)C` [EFV] (HELM PEPTIDE1{[Glp].E.T.D.G.E.S.L.K.K.A.E.E.E.F.V}$$$$V2.0) are 10 mg/mL and 5 mg/mL.
On to APGLW-NH2 [GLWa4], for which the “max solve (DMSO)” value is 10 (10) mg/ml and the max solve water is given as 10 (10) mg/ml.
APRGGRDAPRG-NH2 [PRGa5]: the “max solve (DMSO)” value was 10 (10) mg/ml and the max solve water is 10 (10) mg/ml.
On to `C[C@H](NC(=O)[C@H](CCCCN)NC(=O)[C@H](Cc1ccccc1)NC(=O)[C@@H](N)Cc1ccccc1)C(N)=O` [FFKAa] (H-FFKA-NH2), for which the “max solve (DMSO)” value is 10 (10) mg/ml and the max solve water is 10 (10) mg/ml.
In the case of IPPQGLRFNQW-NH2 [QWa2], the “max solve (DMSO)” value is 10 mg/mL and the max solve water stood at 5 mg/mL.
The corresponding values for `CC(C)C[C@H](NC(=O)[C@H](Cc1c[nH]cn1)NC(=O)[C@H](CO)NC(=O)[C@H](CC(C)C)NC(=O)[C@@H]1CCCN1C(=O)[C@@H]1CCCN1C(=O)[C@@H]1CCC(=O)N1)C(=O)N[C@@H](CO)C(N)=O` [HLSa] (HELM PEPTIDE1{[Glp].P.P.L.S.H.L.S.[am]}$$$$V2.0) are 5 mg/mL and 0 mg/mL.
In the case of NPPIDLGPAYFHIR-NH2 [HIRa5], the “max solve (DMSO)” value came to 10 mg/mL and the max solve water was 5 mg/mL.
As to `CC(C)C[C@H](NC(=O)CNC(=O)[C@@H]1CCCN1C(=O)[C@@H]1CCCN1C(=O)[C@@H](N)CS)C(=O)N[C@@H](Cc1c[nH]c2ccccc12)C(=O)N[C@@H](CS)C(N)=O` [Am_CCa] (H-CPPGLWC-NH2), the “max solve (DMSO)” value was 10 mg/mL and the max solve water turned out to be 5 mg/mL.
Consider GPPMIKIPVRH-NH2 [VRHa], for which the “max solve (DMSO)” value is listed as 10 (10) mg/ml and the max solve water is 10 (10) mg/ml.
Turning to `CC(C)C[C@H](NC(=O)CNC(=O)[C@@H]1CCC(=O)N1)C(=O)N[C@@H](CCCNC(=N)N)C(=O)N[C@@H](Cc1c[nH]c2ccccc12)C(N)=O` [LRWa1] (HELM PEPTIDE1{[Glp].G.L.R.W.[am]}$$$$V2.0), the “max solve (DMSO)” value is 5 mg/mL and the max solve water turned out to be 0 mg/mL.
